{
  "source": "patent EP3748362A1",
  "about": "“IN VITRO METHOD FOR DETECTING RENAL DISEASE” (Fundacion Instituto De Investigacion Sanitaria Fundacion …, priority 2019, dated 2020)",
  "key": {"NF-κB1": {"tested_on": "NF-κB1", "test": "Canonical NF-κB1 activation (western blot) in TWEAK-stimulated HK2 cells", "assay_type": "cell-based, Human", "settings": "12 µM paricalcitol for 48 hours, TWEAK 100 ng/ml 15 min, p65 and IκBα phosphorylation", "protocol": "Human kidney proximal tubule epithelial cells (HK2 cell line, ATCC CRL-2190) were grown in RPMI 1640 with 10% fetal bovine serum (FBS), 1% glutamine, 100 U/ml penicillin, 100 µg/ml streptomycin, 5 µg/ml insulin-transferrin-selenite and 36 ng/ml hydrocortisone in 5% CO2 at 37° C. When cells reached 60 to 70% confluence, they were serum-depleted for 24 hours before the experiment.\nCells were stimulated with 100ng/ml recombinant human soluble TWEAK (Millipore) or p-200 µg/ml cresyl-sulfate (Raymond Vanholder and Griet Glorieux, University of Gent, Belgium). Concentrations of TWEAK and p-cresyl-sulfate were based on previously published dose-response experiments (Poveda et al. 2014; Sanz et al. 2008). In some experiments cells were preincubated for 48 hours with the paricalcitol 12 µmol/L (Abbott) prior to stimulation. DMSO, used as a solvent in some cases, had no effect on cell viability or on gene expression levels.\nFor western blot, cell (25 µg/lane) and kidney (100-150 µg/lane) protein extracts were separated on 6%-12% polyacrylamide-SDS gels under reducing conditions. […] Autoradiographs were scanned using the Gel Doc™ EZ imager and analyzed with the Image Lab 3.0 software (BioRad)."}, "[1]": {"tested_on": "TWEAK-induced renal inflammation", "test": "TWEAK-induced renal inflammation in mice (immunohistochemistry, real time PCR, ELISA)", "assay_type": "in vivo, C57BL/6 mice", "settings": "TWEAK-injected mice, paricalcitol 750 ng/kg/day or SN52 0.7 mg/mouse/day", "protocol": "All animal procedures were performed according to the guidelines of animal research in the European Community and with prior approval by the Ethics Committee of the Health Research of the IIS-Fundacion Jiménez Díaz. For in vivo studies, mice received a daily intraperitoneal injection of the VDRA Paricalcitol starting 48 hours prior to induction of kidney damage.\nAt the time of sacrifice, animals were anesthetized with 5 mg/kg xylazine (Rompun, Bayer AG) and 35 mg/kg ketamine (Ketolar, Pfizer) and the kidneys perfused in situ with cold saline before removal. […]\nParaffin-embedded kidney sections (3 µm) were stained using conventional methods. […] For each sample (processed by duplicate in a blinded manner), the average value was obtained from the analysis of 4 fields (20X objective) as density/mm2 or percentage stained area vs total analyzed area. Data are expressed as fold increase over control mice, as mean ± SEM of 8-10 animals per group. […]\nELISA was used to evaluate levels of the chemokines CCL2 and CCL5 (eBioscience). In renal samples, total protein content was determined by the BCA method, and equal amounts of protein were analyzed. Data are expressed as n-fold increase over the mean of control levels.\nTotal RNA was isolated from cells and mouse kidney samples with Trizol (Invitrogen). […] The mRNA copy numbers were calculated for each sample by the instrument software using Ct value. […]"}},
  "data": [
    {"smiles": "C[C@H](/C=C/[C@H](C)C(C)(C)O)[C@H]1CC[C@H]2/C(=C/C=C3C[C@@H](O)C[C@H](O)C3)CCC[C@]12C", "note": "[paricalcitol]", "values": [
      {"measurement": "TWEAK-induced NF-κB1 activation", "setting": "NF-κB1", "value": "did not modulate"},
      {"measurement": "proinflammatory factors, such as CCL2, CCL5 and IL-6", "setting": "[1]; kidney, real time PCR, ELISA", "value": "significantly decreased"},
      {"measurement": "infiltrating monocytes/macrophages (F4/80+ cells), T lymphocytes (CD3+ cells)", "setting": "[1]; kidney immunohistochemistry", "value": "significantly decreased"}
    ]}
  ]
}
